The values below come from ChEMBL document CHEMBL1201862, “PubChem BioAssay data set” (2004).

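In this assay, cells in 96-well plates receive the compound at five concentrations for 48 hours. Endpoints are linearly interpolated between the surrounding concentrations. GI50: concentration for 50% inhibition of growth.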 Activity calls are given as the source filed them. Rule as the data show it: active = GI50 up to about 1.1 µM and inactive = higher.

What all share (test): NCI anticancer screen, dose series, 48 h
For experiment [1], the system named is SW-620.
For experiment [2], the system named is RPMI-8226.
The subject of experiment [3] is SK-OV-3.
For experiment [4], the system named is U-251.
For experiment [5], the system named is HL-60.
Experiment [6] has as its system UO-31.
In experiment [7] the test system is CAKI-1.
Experiment [8] relates to RXF 393.
Experiment [9] concerns OVCAR-4.
Experiment [10] deals with HT-29.
The test system of experiment [11] is SN12C.
In experiment [12] the test system is SF-268.
In experiment [13] the test system is KM12.
The subject of experiment [14] is 786-0.
Experiment [15] deals with MCF7.
Experiment [16] deals with MDA-MB-435.
For experiment [17], the system named is DU-145.
The test system of experiment [18] is NCI/ADR-RES.

With `CCCCCCCCCCCC(=O)OCC1OC(n2cc(F)c(=O)[nH]c2=O)C(N)C(OC(=O)CCCCCCCCCCC)C1O` (centres undefined), the GI50 in experiment [1] is 68.4 µM (inactive); in experiment [2] it was 54.5 µM (inactive); in [3], > 100 µM (inactive); in [4], > 100 µM (inactive); in experiment [5] it was 29.6 µM (inactive); in [6], > 100 µM (inactive). Besides, the GI50 in [7] is > 100 µM (inactive); in [8], > 100 µM (inactive); in experiment [9] it was 37.3 µM (inactive); in experiment [10], > 100 µM (inactive); in [11], 60.7 µM (inactive); in experiment [12], > 100 µM (inactive). Also, the results for the GI50 in [13] and in experiment [14] were 45.4 µM (inactive) and > 100 µM (inactive), respectively.
Regarding `CCO/C([O-])=C(\C(=O)c1ccc([N+](=O)[O-])cc1)[n+]1c(C)n(C)c2ccccc21`, the GI50 in [1], in experiment [2], in experiment [3], in experiment [4], in experiment [5] and in [6] was > 100 µM (inactive) throughout. The GI50 in [7], in [8], in experiment [9], in [10], in experiment [12] and in experiment [13] was > 100 µM (inactive) in each case. In addition, the GI50 in experiment [14] was > 100 µM (inactive).
Turning to `COC(=O)C(C(=O)c1ccccc1)C(C(=O)C(=O)Nc1ccc(OC)cc1OC)C(=O)C(=O)c1ccc(C)cc1` (centres undefined), the GI50 in [1], in experiment [2], in experiment [3], in [4], in [5] and in experiment [6] was > 100 µM (inactive) throughout. The GI50 in [7], in experiment [8], in experiment [9], in [10], in [11] and in experiment [12] was > 100 µM (inactive) throughout. For the same compound, the GI50 in experiment [13] and in experiment [14] was > 100 µM (inactive) throughout.
With `O=C(O)CCCCCOc1cccnc1/C=N/NC1=NCCN1`, the GI50 in [1], in [2], in [3], in experiment [4], in experiment [5] and in [6] was > 100 µM (inactive) each time. The GI50 in experiment [7], in [8], in experiment [9], in experiment [10], in experiment [11] and in experiment [12] was > 100 µM (inactive) each time. Moreover, the GI50 in experiment [13] and in [14] was > 100 µM (inactive) throughout.
On to `COC(=O)c1nc(N)nc(O)c1-c1ccc(Cl)cc1`, for which the GI50 in experiment [1], in [2], in experiment [3], in experiment [4], in experiment [5] and in [6] was > 100 µM (inactive) each time. Further, the GI50 in experiment [7], in [8], in experiment [9], in experiment [10], in [11] and in experiment [12] was > 100 µM (inactive) in each case. Moreover, the GI50 in experiment [13] and in experiment [14] was > 100 µM (inactive) throughout.
Turning to `O=C1c2ccccc2C(=O)C1C(c1ccc([N+](=O)[O-])cc1)C1C(=O)c2ccccc2C1=O`, the GI50 in experiment [1] was 17.9 µM (inactive); in experiment [2], 54.5 µM (inactive); in experiment [3], > 100 µM (inactive); in experiment [4] it was 30.3 µM (inactive); in [5], 58.3 µM (inactive); in experiment [6], 44.7 µM (inactive). For the same compound, the GI50 in experiment [7] was 28.8 µM (inactive); in experiment [8], 14.3 µM (inactive); in experiment [9], > 100 µM (inactive); in experiment [10] it was > 100 µM (inactive); in experiment [11] it was 36.6 µM (inactive); in experiment [12], 24.9 µM (inactive). For the same compound, the GI50 is 90.8 µM (inactive) in experiment [13] and > 100 µM (inactive) in [14].
In the case of `C1=C(c2ccccc2)CN(c2ccccc2)OC1`, the GI50 is > 100 µM (inactive) in [1]; 44.8 µM (inactive) in experiment [2]; > 100 µM (inactive) in experiment [3]; > 100 µM (inactive) in experiment [4]; 54.8 µM (inactive) in experiment [5]; 32.2 µM (inactive) in experiment [6]. Moreover, the GI50 was 56.5 µM (inactive) in experiment [7]; 33.5 µM (inactive) in [8]; > 10 µM (inactive) in experiment [9]; 44.4 µM (inactive) in experiment [10]; > 100 µM (inactive) in experiment [11]; 79.3 µM (inactive) in experiment [12]. The GI50 in experiment [13] and in experiment [14] was > 100 µM (inactive) throughout.
For the compound `NNC(=O)CCC(=O)NC1C2CC3CC(C2)CC1C3` (centres undefined), the GI50 in [1], in experiment [2], in experiment [3], in experiment [4], in experiment [5] and in [6] was > 100 µM (inactive) each time. Besides, the GI50 was > 100 µM (inactive) in experiment [7]; 45.4 µM (inactive) in experiment [8]; > 100 µM (inactive) in experiment [9]; > 100 µM (inactive) in experiment [10]; > 100 µM (inactive) in [11]; > 100 µM (inactive) in experiment [12]. The GI50 in experiment [13] and in experiment [14] was > 100 µM (inactive) each time.
As to `CN(CC(=O)O)c1ncc2c(n1)-c1ccccc1CC2`, the GI50 in [15], in experiment [1], in experiment [2], in experiment [3], in [4] and in experiment [16] was > 100 µM (inactive) throughout. In addition, the GI50 in experiment [5], in [6], in [7], in experiment [17], in [8] and in [9] was > 100 µM (inactive) in each case. Also, the GI50 in experiment [10], in [11], in experiment [12], in experiment [18], in experiment [13] and in [14] was > 100 µM (inactive) throughout.
On to `FC(F)(F)c1nc(-c2ccccc2Cl)[nH]c1C(F)(F)F`, for which the GI50 is 1.15 µM (inactive) in experiment [1]; 2.66 µM (inactive) in experiment [2]; 0.841 µM (active) in [3]; 0.318 µM (active) in experiment [4]; 0.406 µM (active) in [5]; 0.675 µM (active) in experiment [6]. Besides, the GI50 in [7] was 0.679 µM (active); in [8], 0.798 µM (active); in [9], 0.664 µM (active); in [10], 0.94 µM (active); in experiment [11], 0.705 µM (active); in [12], 1.23 µM (inactive). Further, the GI50 was 0.975 µM (active) in [13] and 1.08 µM (active) in experiment [14].
`CCC(/C(=N/NC(=O)C[N+](C)(C)C)c1ccccc1)C1OC(=O)c2ccccc21` (centres undefined): the GI50 in [1], in experiment [2], in experiment [3], in [4], in [5] and in experiment [6] was > 100 µM (inactive) in each case. Moreover, the GI50 in experiment [7], in experiment [8], in experiment [9], in [10], in experiment [11] and in [12] was > 100 µM (inactive) each time. Besides, the GI50 in experiment [13] and in experiment [14] was > 100 µM (inactive) each time.
`O=[N+]([O-])c1ccc(N2C[N+](c3ccccc3)=NC(c3ccccc3)=N2)cc1`: the GI50 in experiment [1] is 68.4 µM (inactive); in experiment [2], 39.3 µM (inactive); in experiment [3], 48.9 µM (inactive); in [4], 32.2 µM (inactive); in experiment [5], 38.2 µM (inactive); in experiment [6] it was 17.3 µM (inactive). The GI50 in experiment [7] was 63 µM (inactive); in experiment [8], 54.5 µM (inactive); in experiment [9], 44.5 µM (inactive); in [10], 43.9 µM (inactive); in experiment [11], 46.3 µM (inactive); in [12] it was 29.4 µM (inactive). Further, the GI50 in experiment [13] is 29.4 µM (inactive); in [14] it was 59.7 µM (inactive).
As for `c1ccc2c3c([nH]c2c1)C1(CCCCC1)c1c([nH]c2ccccc12)C31CCCCC1`, the GI50 in experiment [1] was > 100 µM (inactive); in [2] it was 56.8 µM (inactive); in [3] it was 18.2 µM (inactive); in [4], 30.2 µM (inactive); in [5] it was > 100 µM (inactive); in experiment [6], 29 µM (inactive). Moreover, the GI50 was 38.6 µM (inactive) in [7]; 25.4 µM (inactive) in experiment [8]; 10.6 µM (inactive) in experiment [9]; > 100 µM (inactive) in experiment [10]; 22.9 µM (inactive) in experiment [11]; 23.6 µM (inactive) in [12]. For the same compound, the GI50 was > 100 µM (inactive) in [13] and 15.1 µM (inactive) in experiment [14].
Take `O=C(CCc1nnc(S)[nH]1)Nc1ccccc1Cl`: the GI50 was 18.2 µM (inactive) in experiment [1]; > 100 µM (inactive) in experiment [2]; > 100 µM (inactive) in experiment [3]; > 100 µM (inactive) in experiment [4]; > 100 µM (inactive) in [5]; > 100 µM (inactive) in [6]. Besides, the GI50 in experiment [7], in experiment [8], in experiment [9], in experiment [10], in [11] and in [12] was > 100 µM (inactive) each time. Besides, the GI50 in [13] and in [14] was > 100 µM (inactive) each time.
